Test results as given in patent US20220220100A1 (SOLUTIA CANADA INC., priority 2019, published 2022).

Experiments:
[1] = Oxidation potential of ring-closed and ring-open isomers; assay type: physicochemical; conditions: no unit printed in table (V relative to Ag/AgCl)
Excerpt: In various embodiments, at a PSS, some of the chromophore will be in the ring-closed isomer, with a small, but non-zero portion of ring-open isomer. The oxidation potential of a ring-open isomer may be more anodic than the oxidation potential of a ring-closed isomer. Exposure to a potential that is too far beyond what is necessary to oxidize the ring-closed isomer may result in oxidation of the ring-open isomer, which may be irreversible and result in electrochemically-induced degradation of the chromophore.
Thus, in various embodiments, an anodic chromophore may have an oxidation potential of from about 0.4 V to 1.2 V for the ring-closed isomer and about 1.0 V to 2.5 V for the ring-open isomer relative to an Ag/AgCl reference electrode. In various embodiments, the oxidation potential for the ring-open isomer is about 250 mV more anodic than the oxidation potential for the ring-closed isomer. For example, the oxidation potential may be about 260 mV, about 280 mV, about 300 mV, about 320 mV, about 340 mV, about 360 mV, about 380 mV, about 400 mV, about 420 mV, about 440 mV, or about 460 mV more anodic than the oxidation potential for the ring-closed isomer.

[2] = Photostability: xenon arc weathering of chromophore solutions, LCMS analysis; assay type: physicochemical; conditions: for Ketone (%) / Minus-2HF (%) / Minus-HF (%) / Sulfone (%) / Chromophore Remaining (%): xenon arc, 82° C. bp; for Ketone (%) / Minus-2HF (%) / Minus-HF (%) / Sulfone (%): linearly interpolated to 0.5 MJ/m2 @ 340 nm; for Chromophore Remaining (%): linearly interpolated to 0.5 MJ/m2 @ 340 nm of exposure energy; for Photostability (in words): weathering experiments
Excerpt: Photostability (resistance to light-induced degradation) may be measured by the amount of time required for the compound, or a material comprising the compound, to degrade to a certain point under light exposure. The light exposure may be constant, or cyclic. The light transmittance or absorbance of the compound, or material comprising the compound, may be determined at both a light state and dark state prior to testing, to determine a contrast ratio. During testing, the contrast ratio may be monitored (periodically or continually), the compound or material may be determined to have failed when the contrast ratio falls outside, or below, a selected range, or when the contrast ratio decreases to a percentage of the original contrast ratio. Photostability may also be expressed with reference to a light source or with reference to a type of light.
Chromophore solutions in Rhodiasolv IRIS were prepared at 1 to 10 wt % loading. Solutions were prepared in a glovebox by charging the chromophore and Rhodiasolv IRIS to a trace-clean vial, and the solution was stirred on a hotplate at 90° C. for 2-24 hours. After cooling, the chromophore solution was injected into glass weathering cells and the fill and vent ports were sealed with a thin disc of Kalrez (FFKM Perfluorinated Elastomer) and secured with a clamp and set-screw. The weathering cells were filled and sealed inside the glove box.
Measurement of Photostability
A. Fabrication of cuvettes. Two holes of 0.8 mm diameter were drilled at opposite ends in a 75×50 mm piece of float glass using a diamond drill bit in a rotary tool. The drilled glass and a matching piece of undrilled glass were then cleaned using hot soapy water, rinsed with deionized water and acetone and then dried with compressed air. A 5 mm wide frame was cut from a sheet of 50 μm thickness EVAL EF-F using a laser engraver. The EVAL frame was placed around the perimeter of one sheet of glass and sandwiched by the second sheet of glass. The glass-EVAL-glass sandwich was secured with tape and heated under vacuum (10 mmHg) for 30 minutes at 170° C. in a vacuum bag. After cooling, a third piece of float glass was PVB laminated to the non-drilled side of the sealed glass cells using Trosifol UV Extra Protect B150 PVB (400 nm UV cut-off).
B. Xenon arc weathering protocol. Devices were exposed to simulated weathering conditions inside a Xe-3-HS xenon arc chamber, manufactured by Q-labs Inc. The samples were weathered according to the following table. The devices were exposed to these conditions continuously, with no dark or spray cycles included.
C. Analysis of weathered chromophore solutions by LCMS. The set-screws, metal clamps and Kalrez plugs were removed from the cuvette to expose the fill port. A 5 mL plastic syringe (NORM-JECT®) equipped with a tip (Precision Tips, 0.010″ RED) was inserted into one fill port and the chromophore solution was withdrawn from the cuvette. The chromophore solution was then injected into a 2 mL amber vial (part number 5182-0716, Agilent Technology) prefilled with 1.5 mL LC-MS grade acetonitrile (HiPerSolbe CHROMANORM Acetonitrile, VWR BDH Chemicals). An aliquot of the acetonitrile solution (2 μL) was injected into the LC-MS system (Agilent Infinity 1290 LC-MS system with diode array detector) through an autosampler mechanism. Species in the injected sample were separated through a reverse phase column (Zorbax SB-C18, 2.1×50 mm, 1.8 μm, operated at 40° C.), using a mixture of acetonitrile (mixed with 1% formic acid v/v ratio), methanol (HiPerSolbe CHROMANORM Methanol, VWR BDH Chemicals) and water (HiPerSolbe CHROMANORM Water, VWR BDH Chemicals) as mobile phase.

[3] = 3 wt %, interpolated to 0.5 MJ/m^2 of energy exposure at 340 nm
[4] = 1 wt %, interpolated to 0.5 MJ/m^2 of energy exposure at 340 nm
[5] = 10 wt %, interpolated to 0.5 MJ/m^2 of energy exposure at 340 nm

SMILES	RC [O] (oxidation potential of ring-closed isomer) [1]	RO [O] (oxidation potential of ring-open isomer) [1]	Ketone (%) ([2]; 3 wt % in Rhodiasolv IRIS)	Minus-2HF (%) ([2]; 3 wt % in Rhodiasolv IRIS)	Minus-HF (%) ([2]; 3 wt % in Rhodiasolv IRIS)	Sulfone (%) ([2]; 3 wt % in Rhodiasolv IRIS)	Chromophore Remaining (%) ([2]; 3 wt % in Rhodiasolv IRIS)	Ratio of chromophore remaining relative to S340 [2, 3]	Photostability (in words) [2]	Ketone (%) ([2]; 10 wt % in Rhodiasolv IRIS)	Minus-2HF (%) ([2]; 10 wt % in Rhodiasolv IRIS)	Minus-HF (%) ([2]; 10 wt % in Rhodiasolv IRIS)	Sulfone (%) ([2]; 10 wt % in Rhodiasolv IRIS)	Chromophore Remaining (%) ([2]; 10 wt % in Rhodiasolv IRIS)	Ratio of chromophore remaining relative to S340 [2, 5]	also measured
COc1ccc2c(C3=C(c4cc(-c5ccc(C(C)(C)C)s5)sc4-c4ccc(C(C)(C)C)s4)C(F)(F)C(F)(F)C3(F)F)c(-c3ccc(C(C)(C)C)cc3)oc2c1	1	1.38	0.0%	1.9%	6.9%	0.0%	86.9%	0.95	more rapid degradation compared to S340	–	–	–	–	–	–	–
COc1cc2oc(-c3ccc(C(C)(C)C)cc3)c(C3=C(c4cc(-c5cc6c(s5)C(C)(C)CCC6(C)C)sc4-c4cc5c(s4)C(C)(C)CCC5(C)C)C(F)(F)C(F)(F)C3(F)F)c2cc1OC	0.91	1.29	–	–	–	–	–	–	high photostability	–	–	–	–	–	–	Ketone (%) ([2]; 1 wt % in Rhodiasolv IRIS): 3.3%; Minus-2HF (%) ([2]; 1 wt % in Rhodiasolv IRIS): 0.0%; Minus-HF (%) ([2]; 1 wt % in Rhodiasolv IRIS): 1.3%; Sulfone (%) ([2]; 1 wt % in Rhodiasolv IRIS): 3.1%; Chromophore Remaining (%) ([2]; 1 wt % in Rhodiasolv IRIS): 92.3%; Ratio of chromophore remaining relative to S340 [2, 4]: 1.01; Sum of degradation product percentages relative to the sum of degradation product percentages for S340 [2, 4]: 0.87
COCCCOc1cc2oc(-c3ccc(C(C)(C)C)cc3)c(C3=C(c4cc(-c5cc(C(C)(C)C)cs5)sc4-c4cc(C(C)(C)C)cs4)C(F)(F)C(F)(F)C3(F)F)c2cc1OCCCOC	0.95	1.39	–	–	–	–	–	–	high photostability	0.0%	0.0%	0.0%	0.1%	98.6%	1.08	Formation of the Minus-HF degradation product (in words) [2]: prevents the Minus-HF product
CC(C)(C)c1ccc(-c2oc3cc(OCCN4C(=O)CCC4=O)c(OCCN4C(=O)CCC4=O)cc3c2C2=C(c3cc(-c4cc(C(C)(C)C)cs4)sc3-c3cc(C(C)(C)C)cs3)C(F)(F)C(F)(F)C2(F)F)cc1	1.05	1.42	–	–	–	–	–	–	high photostability	0.0%	0.0%	0.0%	0.0%	95.3%	1.05	–
COc1cc2oc(-c3ccc(C(C)(C)C)cc3)c(C3=C(c4cc(-c5ccc(C(C)(C)C)s5)sc4-c4ccc(C(C)(C)C)s4)C(F)(F)C(F)(F)C3(F)F)c2cc1OC [Chromophore S340, 2-(4-(tert-butyl)phenyl)-3-(2-(5,5″-di-tert-butyl-[2,2′:5′,2″-terthiophen]-3′-yl)-3,3,4,4,5,5-hexafluorocyclopent-1-en-1-yl)-5,6-dimethoxybenzofuran]	0.95	1.35	0.0%	1.0%	3.5%	0.0%	91.1%	1.00	acceptable photostability	–	–	–	–	–	–	–
CC(C)(C)c1ccc(-c2oc3ccccc3c2C2=C(c3cc(-c4ccc(C(C)(C)C)s4)sc3-c3ccc(C(C)(C)C)s3)C(F)(F)C(F)(F)C2(F)F)cc1 [Chromophore S343, 2-(4-(tert-butyl)phenyl)-3-(2-(5,5″-di-tert-butyl-[2,2′:5′,2″-terthiophen]-3′-yl)-3,3,4,4,5,5-hexafluorocyclopent-1-en-1-yl)benzofuran]	1.1	1.37	0.0%	3.1%	0.0%	0.0%	85.2%	0.93	more rapid degradation compared to S340	–	–	–	–	–	–	–
COc1ccc2oc(-c3ccc(C(C)(C)C)cc3)c(C3=C(c4cc(-c5ccc(C(C)(C)C)s5)sc4-c4ccc(C(C)(C)C)s4)C(F)(F)C(F)(F)C3(F)F)c2c1 [Chromophore S344, 2-(4-(tert-butyl)phenyl)-3-(2-(5,5″-di-tert-butyl-[2,2′:5′,2″-terthiophen]-3′-yl)-3,3,4,4,5,5-hexafluorocyclopent-1-en-1-yl)-5-methoxybenzofuran]	1.05	1.36	0.0%	8.0%	25.7%	0.0%	65.1%	0.71	more rapid degradation compared to S340	–	–	–	–	–	–	–
COCCOc1cc2oc(-c3ccc(C(C)(C)C)cc3)c(C3=C(c4cc(-c5ccc(C(C)(C)C)s5)sc4-c4ccc(C(C)(C)C)s4)C(F)(F)C(F)(F)C3(F)F)c2cc1OCCOC [Chromophore S364, 2-(4-(tert-butyl)phenyl)-3-(2-(5,5″-di-tert-butyl-[2,2′:5′,2″-terthiophen]-3′-yl)-3,3,4,4,5,5-hexafluorocyclopent-1-en-1-yl)-5,6-bis(2-methoxyethoxy)benzofuran]	0.93	1.32	–	–	–	–	–	–	decreased stability	0.6%	2.7%	14.9%	0.0%	80.4%	0.88	–
